According to patent publication US6127136A, “Detection of dioxin-like compounds by detection of transformed Ah receptor/ARNT complex” (Paracelsian, Inc., priority 1996, dated 2000):

Target: transformed Ah receptor/ARNT complex (Cavia porcellus, UniProt Q6J287)
Experiment: sandwich ELISA detecting transformed Ah receptor/ARNT complex, DRE and anti-ARNT dilutions
Type: biochemical, guinea pig (hepatic cytosol)
Set-up: from tissue; host or cells: hepatic cytosol of male Hartley guinea pigs (animals from Cornell Research Animal Resources)
Experimental: Working dilution of anti-ARNT was diluted (1:200, 50 uL in 10 mL) in PBS plus 0.02% tween 20 plus 0.1% bovine serum albumin. Working dilution of anti-Rabbit/alkaline phosphatase (Sigma, St. Louis, Mo.) was prepared by diluting 20 uL into 20 mL PBS plus 0.02% tween 20 plus 0.1% bovine serum albumin to make a 1:1000 dilution. Diethanolamine buffer was prepared by dissolving 0.4 g Magnesium chloride hexahydrate, 0.8 g sodium azide, 338 mL diethanolamine in 2.5 L deionized water, adjusting pH to 9.8 with concentrated HCl, and adjusting volume to 4 liters. PnPP stock was prepared fresh by dissoving two 15 mg tablets of para-nitro phenyl phosphate (Sigma, St. Louis, Mo.) in 20 mL diethanolamine buffer.
B-DRE (sequence ID 2) and DRE-D (sequence ID 1) were hybridized as described above. Cytosol was prepared as described above. Thirty five mL of cytosol was thawed and pooled. The cytosol was divided into two 17 mL aliquots and treated with either 17 uL DMSO, sample labled (-) or 17 uL 10 uM TCDD in DMSO with the sample labled (+). DMSO-treated cytosol (1700 uL) was mixed with 10.6 uL hybridized DRE (sample labeled B-). TCDD-treated cytosol (1700 uL) was mixed with 10.6 uL hybridized DRE (sample labeled B+).
A neutravidin-coated 96 well ELISA plate (Pierce), with the standard 12×8 well matrix, labeled 1-12 horizontally and A-H vertically, was warmed to room temperature. DMSO treated cytosol (-) was put in wells A2-A12 x D2-D12 at 200 uL per well. TCDD treated cytosol (+) was put in wells E2-E12 x H2-H12 at 200 uL per well. Untreated Cytosol plus DRE sample (B-), 400 uL per well, was put in wells A1-D1. Treated Cytosol sample plus DRE (13+), 400 uL per well, was put in wells […]. The Untreated cytosol plus DRE sample (B-) and treated cytosol sample plus DRE (B+) were then serially diluted 1:1 across the plate, resulting in a serial dilution of DRE in either 200 uL treated or 200 uL untreated cytosol. The last column (A12H12) contained 400 uL, so 200 uL of that was discarded. Highest dilution of DRE in column A1-H1 was arbitrarily called 1, with the other dilutions labeled 0.5, 0.25 . . . 0.0005 respectively.
The ELISA plate was incubated with gentle rocking for 2 hours to allow the transformaton of Ah receptor, binding of Ah receptor with ARNT, and binding of the Ah receptor/ARNT complex to the biotinylated DRE, and binding of the biotinylated DRE to the neutravidin bound to the ELISA plate.
After 2 hours the plate was washed 3 times with 300 uL PBS plus 0.02% tween 20 and 400 uL of the working dilution of anti-ARNT added to rows A1-A12 and E1-E12 of the ELISA plate. 200 uL of PBS plus 0.02% tween 20 plus 0.1% bovine serum albumin was added to the remaining wells. […] After 2 hours the plate was washed as before and working dilution (1:1000) of anti-rabbit/alkaline phosphatase conjugate was added to all wells. The plate was incubated for a further 1 hour at room temperature with gentle rocking and then washed as before. PnPP stock was added to each well (200 uL) and the plate was incubated for 1 hour, at which time it was read at 405 nm in an ELISA plate reader and milli O.D. recorded.

Sequence of transformed Ah receptor/ARNT complex (Q6J287 1-846): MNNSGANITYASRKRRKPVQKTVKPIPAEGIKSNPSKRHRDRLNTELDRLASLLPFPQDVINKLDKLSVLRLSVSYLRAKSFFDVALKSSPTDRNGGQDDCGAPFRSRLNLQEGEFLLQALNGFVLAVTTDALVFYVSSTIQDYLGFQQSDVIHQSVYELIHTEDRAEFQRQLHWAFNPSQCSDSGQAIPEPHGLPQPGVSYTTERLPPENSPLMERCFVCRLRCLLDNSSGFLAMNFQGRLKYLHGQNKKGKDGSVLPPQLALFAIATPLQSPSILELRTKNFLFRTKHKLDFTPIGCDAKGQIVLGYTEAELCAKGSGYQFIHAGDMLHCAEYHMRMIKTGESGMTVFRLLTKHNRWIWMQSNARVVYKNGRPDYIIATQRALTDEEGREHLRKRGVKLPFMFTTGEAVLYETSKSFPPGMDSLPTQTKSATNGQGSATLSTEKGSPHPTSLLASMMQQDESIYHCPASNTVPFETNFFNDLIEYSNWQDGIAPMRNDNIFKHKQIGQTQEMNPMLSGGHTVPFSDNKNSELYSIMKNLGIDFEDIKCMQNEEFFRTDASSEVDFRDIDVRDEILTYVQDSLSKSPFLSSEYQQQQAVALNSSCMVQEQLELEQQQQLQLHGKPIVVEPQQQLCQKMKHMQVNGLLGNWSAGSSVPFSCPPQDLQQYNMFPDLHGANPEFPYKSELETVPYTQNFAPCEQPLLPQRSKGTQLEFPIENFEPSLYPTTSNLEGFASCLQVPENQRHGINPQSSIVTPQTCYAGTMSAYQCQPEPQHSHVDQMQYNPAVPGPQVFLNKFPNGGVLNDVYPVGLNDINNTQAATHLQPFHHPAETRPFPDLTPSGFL
Sequence of transformed Ah receptor/ARNT complex (Q0WXX3 1-790 partner): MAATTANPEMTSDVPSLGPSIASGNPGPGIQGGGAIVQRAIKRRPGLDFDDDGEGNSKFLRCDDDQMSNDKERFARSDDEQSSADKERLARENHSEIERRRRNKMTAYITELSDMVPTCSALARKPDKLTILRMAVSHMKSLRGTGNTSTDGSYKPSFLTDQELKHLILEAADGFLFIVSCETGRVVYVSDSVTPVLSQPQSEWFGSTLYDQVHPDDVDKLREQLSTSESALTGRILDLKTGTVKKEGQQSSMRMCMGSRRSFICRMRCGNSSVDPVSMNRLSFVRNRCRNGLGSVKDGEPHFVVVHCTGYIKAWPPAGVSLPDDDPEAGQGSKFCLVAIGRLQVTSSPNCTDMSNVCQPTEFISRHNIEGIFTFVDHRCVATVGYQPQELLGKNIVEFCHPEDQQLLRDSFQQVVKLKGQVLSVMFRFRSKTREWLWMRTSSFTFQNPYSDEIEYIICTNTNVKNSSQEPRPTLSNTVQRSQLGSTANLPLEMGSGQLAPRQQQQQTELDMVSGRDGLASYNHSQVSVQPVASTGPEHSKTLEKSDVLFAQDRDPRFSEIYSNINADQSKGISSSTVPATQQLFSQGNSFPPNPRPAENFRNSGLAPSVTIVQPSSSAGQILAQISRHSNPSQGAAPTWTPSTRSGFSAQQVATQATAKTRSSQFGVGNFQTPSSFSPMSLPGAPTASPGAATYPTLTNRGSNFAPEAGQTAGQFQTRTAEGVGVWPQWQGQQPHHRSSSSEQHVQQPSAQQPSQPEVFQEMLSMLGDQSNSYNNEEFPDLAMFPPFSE

With Clc1cc2c(cc1Cl)Oc1cc(Cl)c(Cl)cc1O2 [TCDD, 2,3,7,8-tetrachlorodibenzo-p-dioxin] the “response in sandwich ELISA” value (Example 7 conclusion) was “gives a differential response”, the “O.D. at 405 nm” value (anti-ARNT dilution 0.000625, DRE dilution 0.002, TCDD (+)) was 463 milli O.D and the “O.D. at 405 nm” value (anti-ARNT dilution 0.000625, DRE dilution 0.004, TCDD (+)) was 595 milli O.D. For the same compound, the “O.D. at 405 nm” value (anti-ARNT dilution 0.000625, DRE dilution 0.008, TCDD (+)) was 726 milli O.D, the “O.D. at 405 nm” value (anti-ARNT dilution 0.000625, DRE dilution 0.016, TCDD (+)) was 639 milli O.D and the “O.D. at 405 nm” value (anti-ARNT dilution 0.000625, DRE dilution 0.031, TCDD (+)) was 562 milli O.D. For the same compound, the “O.D. at 405 nm” value (anti-ARNT dilution 0.000625, DRE dilution 0.063, TCDD (+)) was 480 milli O.D, the “O.D. at 405 nm” value (anti-ARNT dilution 0.000625, DRE dilution 0.125, TCDD (+)) was 411 milli O.D and the “O.D. at 405 nm” value (anti-ARNT dilution 0.000625, DRE dilution 0.25, TCDD (+)) was 392 milli O.D. The “O.D. at 405 nm” value (anti-ARNT dilution 0.000625, DRE dilution 0.5, TCDD (+)) was 393 milli O.D, the “O.D. at 405 nm” value (anti-ARNT dilution 0.000625, DRE dilution 1, TCDD (+)) was 408 milli O.D and the “O.D. at 405 nm” value (anti-ARNT dilution 0.000625, DRE dilution 1E-03, TCDD (+)) was 442 milli O.D. For the same compound, the “O.D. at 405 nm” value (anti-ARNT dilution 0.000625, DRE dilution 5E-04, TCDD (+)) was 480 milli O.D, the “O.D. at 405 nm” value (anti-ARNT dilution 0.00125, DRE dilution 0.002, TCDD (+)) was 595 milli O.D and the “O.D. at 405 nm” value (anti-ARNT dilution 0.00125, DRE dilution 0.004, TCDD (+)) was 932 milli O.D. For the same compound, the “O.D. at 405 nm” value (anti-ARNT dilution 0.00125, DRE dilution 0.008, TCDD (+)) was 1070 milli O.D, the “O.D. at 405 nm” value (anti-ARNT dilution 0.00125, DRE dilution 0.016, TCDD (+)) was 916 milli O.D and the “O.D. at 405 nm” value (anti-ARNT dilution 0.00125, DRE dilution 0.031, TCDD (+)) was 767 milli O.D. The “O.D. at 405 nm” value (anti-ARNT dilution 0.00125, DRE dilution 0.063, TCDD (+)) was 537 milli O.D, the “O.D. at 405 nm” value (anti-ARNT dilution 0.00125, DRE dilution 0.125, TCDD (+)) was 487 milli O.D and the “O.D. at 405 nm” value (anti-ARNT dilution 0.00125, DRE dilution 0.25, TCDD (+)) was 406 milli O.D. For the same compound, the “O.D. at 405 nm” value (anti-ARNT dilution 0.00125, DRE dilution 0.5, TCDD (+)) was 393 milli O.D, the “O.D. at 405 nm” value (anti-ARNT dilution 0.00125, DRE dilution 1, TCDD (+)) was 387 milli O.D and the “O.D. at 405 nm” value (anti-ARNT dilution 0.00125, DRE dilution 1E-03, TCDD (+)) was 484 milli O.D. For the same compound, the “O.D. at 405 nm” value (anti-ARNT dilution 0.00125, DRE dilution 5E-04, TCDD (+)) was 498 milli O.D, the “O.D. at 405 nm” value (anti-ARNT dilution 0.0025, DRE dilution 0.002, TCDD (+)) was 922 milli O.D and the “O.D. at 405 nm” value (anti-ARNT dilution 0.0025, DRE dilution 0.004, TCDD (+)) was 1281 milli O.D. For the same compound, the “O.D. at 405 nm” value (anti-ARNT dilution 0.0025, DRE dilution 0.008, TCDD (+)) was 1682 milli O.D, the “O.D. at 405 nm” value (anti-ARNT dilution 0.0025, DRE dilution 0.016, TCDD (+)) was 1486 milli O.D and the “O.D. at 405 nm” value (anti-ARNT dilution 0.0025, DRE dilution 0.031, TCDD (+)) was 1125 milli O.D. For the same compound, the “O.D. at 405 nm” value (anti-ARNT dilution 0.0025, DRE dilution 0.063, TCDD (+)) was 804 milli O.D, the “O.D. at 405 nm” value (anti-ARNT dilution 0.0025, DRE dilution 0.125, TCDD (+)) was 608 milli O.D and the “O.D. at 405 nm” value (anti-ARNT dilution 0.0025, DRE dilution 0.25, TCDD (+)) was 532 milli O.D. For the same compound, the “O.D. at 405 nm” value (anti-ARNT dilution 0.0025, DRE dilution 0.5, TCDD (+)) was 544 milli O.D, the “O.D. at 405 nm” value (anti-ARNT dilution 0.0025, DRE dilution 1, TCDD (+)) was 585 milli O.D and the “O.D. at 405 nm” value (anti-ARNT dilution 0.0025, DRE dilution 1E-03, TCDD (+)) was 680 milli O.D. The “O.D. at 405 nm” value (anti-ARNT dilution 0.0025, DRE dilution 5E-04, TCDD (+)) was 722 milli O.D, the “O.D. at 405 nm” value (anti-ARNT dilution 0.005, DRE dilution 0.002, TCDD (+)) was 1524 milli O.D and the “O.D. at 405 nm” value (anti-ARNT dilution 0.005, DRE dilution 0.004, TCDD (+)) was 2029 milli O.D. For the same compound, the “O.D. at 405 nm” value (anti-ARNT dilution 0.005, DRE dilution 0.008, TCDD (+)) was 2558 milli O.D, the “O.D. at 405 nm” value (anti-ARNT dilution 0.005, DRE dilution 0.016, TCDD (+)) was 2122 milli O.D and the “O.D. at 405 nm” value (anti-ARNT dilution 0.005, DRE dilution 0.031, TCDD (+)) was 1706 milli O.D. For the same compound, the “O.D. at 405 nm” value (anti-ARNT dilution 0.005, DRE dilution 0.063, TCDD (+)) was 1202 milli O.D, the “O.D. at 405 nm” value (anti-ARNT dilution 0.005, DRE dilution 0.125, TCDD (+)) was 963 milli O.D and the “O.D. at 405 nm” value (anti-ARNT dilution 0.005, DRE dilution 0.25, TCDD (+)) was 777 milli O.D. The “O.D. at 405 nm” value (anti-ARNT dilution 0.005, DRE dilution 0.5, TCDD (+)) was 765 milli O.D, the “O.D. at 405 nm” value (anti-ARNT dilution 0.005, DRE dilution 1, TCDD (+)) was 771 milli O.D and the “O.D. at 405 nm” value (anti-ARNT dilution 0.005, DRE dilution 1E-03, TCDD (+)) was 1070 milli O.D. The “O.D. at 405 nm” value (anti-ARNT dilution 0.005, DRE dilution 5E-04, TCDD (+)) was 1191 milli O.D.
